Test results reported in patent US20060281771A1, “SYNERGISTIC MODULATION OF FLT3 KINASE USING AMINOQUINOLINE AND AMINOQUINAZOLINE KINASE MODULATORS” (priority 2005, published 2006).

Tests used:
[1] = biological target: T1, isolated kinase domain of the human FLT3 receptor (a.a. 571-993) (Homo sapiens, UniProt P36888); test: FLT3 fluorescence polarization kinase assay; format: biochemical
T1 construct: human FLT3 receptor (a.a. 571-993)
T1 sequence (P36888 571-993): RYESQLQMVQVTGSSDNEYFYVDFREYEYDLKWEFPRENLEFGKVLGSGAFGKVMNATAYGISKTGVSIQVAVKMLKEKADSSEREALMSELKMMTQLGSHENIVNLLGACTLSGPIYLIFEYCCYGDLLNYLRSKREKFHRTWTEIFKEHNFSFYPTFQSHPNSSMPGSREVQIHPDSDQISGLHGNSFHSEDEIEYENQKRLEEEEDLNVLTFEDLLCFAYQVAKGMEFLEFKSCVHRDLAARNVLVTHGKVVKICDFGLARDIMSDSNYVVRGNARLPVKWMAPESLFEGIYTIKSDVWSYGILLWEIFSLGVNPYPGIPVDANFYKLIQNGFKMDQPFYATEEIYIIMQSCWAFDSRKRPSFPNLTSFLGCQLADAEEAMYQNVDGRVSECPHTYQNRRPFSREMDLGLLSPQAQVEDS
Description: The FLT3 FP assay utilizes the fluorescein-labeled phosphopeptide and the anti-phosphotyrosine antibody included in the Panvera Phospho-Tyrosine Kinase Kit (Green) supplied by Invitrogen. When FLT3 phosphorylates polyGlu4Tyr, the fluorescein-labeled phosphopeptide is displaced from the anti-phosphotyrosine antibody by the phosphorylated poly Glu4Tyr, thus decreasing the FP value. […] The kinase reaction is stopped with the addition of EDTA. The fluorescein-labeled phosphopeptide and the anti-phosphotyrosine antibody are added and incubated for 30 minutes at room temperature.
All data points are an average of triplicate samples. Inhibition and IC50 data analysis was done with GraphPad Prism using a non-linear regression fit with a multiparamater, sigmoidal dose-response (variable slope) equation.

MV4-11 cells = test: Inhibition of MV4-11 cell proliferation (CellTiterGlo, 72 h); format: cell-based; details: Homo sapiens; 72 h growth inhibition
Procedure: To assess the cellular potency of the FLT3 inhibitors of Formula I′, FLT3 specific growth inhibition was measured in the leukemic cell line MV4-11 (ATCC Number: CRL-9591). […] MV4-11 cells cannot grow and survive without active FLT3ITD.
To measure proliferation inhibition by test compounds, the luciferase based CellTiterGlo reagent (Promega), which quantifies total cell number based on total cellular ATP concentration, was used. Cells are plated at 10,000 cells per well in 100 ul of in RPMI media containing penn/strep, 10% FBS and 1 ng/ml GM-CSF or 1 ng/ml IL-3 for MV4-11 and Baf3 cells respectively.
Compound dilutions or 0.1% DMSO (vehicle control) are added to cells and the cells are allowed to grow for 72 hours at standard cell growth conditions (37° C., 5% CO2). For activity measurements in MV4-11 cells grown in 50% plasma, cells were plated at 10,000 cells per well in a 1:1 mixture of growth media and human plasma (final volume of 100 μL). To measure total cell growth an equal volume of CellTiterGlo reagent was added to each well, according to the manufacturer's instructions, and luminescence was quantified. Total cell growth was quantified as the difference in luminescent counts (relative light units, RLU) of cell number at Day 0 compared to total cell number at Day 3 (72 hours of growth and/or compound treatment). One hundred percent inhibition of growth is defined as an RLU equivalent to the Day 0 reading. Zero percent inhibition was defined as the RLU signal for the DMSO vehicle control at Day 3 of growth. All data points are an average of triplicate samples. […] Inhibition and IC50 data analysis was done with GraphPad Prism using a non-linear regression fit with a multiparamater, sigmoidal dose-response (variable slope) equation.
MV4-11 cells express the FLT3 internal tandem duplication mutation, and thus are entirely dependent upon FLT3 activity for growth. […] In contrast, the Baf3 cell proliferation is driven by the cytokine IL-3 and thus are used as a non-specific toxicity control for test compounds.

[2] = biological target: T2, wild-type FLT3 phosphorylation in Baf3 FLT3 cells (Homo sapiens, UniProt P36888); test: Cell-based FLT3 receptor ELISA; details: FLT ligand-induced FLT3 phosphorylation
T2 construct: host or cells: Baf3 (murine B cell lymphoma line)
T2 sequence (P36888 27-993): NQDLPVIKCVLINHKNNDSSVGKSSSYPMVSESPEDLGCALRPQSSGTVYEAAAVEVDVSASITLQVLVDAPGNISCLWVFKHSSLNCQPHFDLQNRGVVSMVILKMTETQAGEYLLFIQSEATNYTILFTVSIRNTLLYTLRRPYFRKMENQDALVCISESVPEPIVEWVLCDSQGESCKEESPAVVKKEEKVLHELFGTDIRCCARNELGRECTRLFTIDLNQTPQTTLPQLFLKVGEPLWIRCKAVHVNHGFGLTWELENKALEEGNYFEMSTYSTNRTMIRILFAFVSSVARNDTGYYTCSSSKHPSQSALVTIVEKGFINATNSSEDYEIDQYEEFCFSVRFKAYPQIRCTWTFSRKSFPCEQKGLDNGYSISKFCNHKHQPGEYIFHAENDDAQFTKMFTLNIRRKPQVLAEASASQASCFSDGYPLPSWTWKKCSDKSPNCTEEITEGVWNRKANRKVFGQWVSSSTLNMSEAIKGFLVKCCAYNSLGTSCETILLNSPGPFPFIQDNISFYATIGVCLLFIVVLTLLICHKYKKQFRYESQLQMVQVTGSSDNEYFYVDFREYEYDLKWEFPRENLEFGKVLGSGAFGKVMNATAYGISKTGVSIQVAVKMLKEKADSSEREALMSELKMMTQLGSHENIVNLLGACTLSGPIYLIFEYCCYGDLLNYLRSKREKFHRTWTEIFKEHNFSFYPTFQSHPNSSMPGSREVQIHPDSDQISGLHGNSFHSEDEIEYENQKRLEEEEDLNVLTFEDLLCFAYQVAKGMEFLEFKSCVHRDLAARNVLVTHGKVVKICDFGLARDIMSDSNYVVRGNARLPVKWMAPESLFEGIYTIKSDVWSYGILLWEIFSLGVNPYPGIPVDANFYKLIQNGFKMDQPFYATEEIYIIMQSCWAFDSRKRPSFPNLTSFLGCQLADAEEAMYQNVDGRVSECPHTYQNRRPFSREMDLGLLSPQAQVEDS
Procedure: Specific cellular inhibition of FLT ligand-induced wild-type FLT3 phosphorylation was measured in the following manner: Baf3 FLT3 cells overexpressing the FLT3 receptor were obtained from Dr. Michael Heinrich (Oregon Health and Sciences University). The Baf3 FLT3 cell lines were created by stable transfection of parental Baf3 cells (a murine B cell lymphoma line dependent on the cytokine IL-3 for growth) with wild-type FLT3. Cells were selected for their ability to grow in the absence of IL-3 and in the presence of FLT3 ligand.
Baf3 cells were maintained in RPMI 1640 with 10% FBS, penn/strep and 10 ng/ml FLT ligand at 37° C., 5% CO2. To measure direct inhibition of the wild-type FLT3 receptor activity and phosphorylation a sandwich ELISA method was developed similar to those developed for other RTKs (see Sadick, M D, Sliwkowski, M X, Nuijens, A, Bald, L, Chiang, N, Lofgren, J A, Wong W L T. Analysis of Heregulin-Induced ErbB2 Phosphorylation with a High-Throughput Kinase Receptor Activation Enzyme-Linked Immunsorbent Assay, Analytical Biochemistry. 1996; 235:207-214 and Baumann C A, Zeng L, Donatelli R R, Maroney A C. Development of a quantitative, high-throughput cell-based enzyme-linked immunosorbent assay for detection of colony-stimulating factor-1 receptor tyrosine kinase inhibitors. J Biochem Biophys Methods. 2004; 60:69-79.). 200 μL of Baf3FLT3 cells (1×10^6/mL) were plated in 96 well dishes in RPMI 1640 with 0.5% serum and 0.01 ng/mL IL-3 for 16 hours prior to 1 hour compound or DMSO vehicle incubation. Cells were treated with 100 ng/mL Flt ligand (R&D Systems Cat# 308-FK) for 10 min. at 37° C. Cells were pelleted, washed and lysed in 100 ul lysis buffer (50 mM Hepes, 150 mM NaCl, 10% Glycerol, 1% Triton-X-100, 10 mM NaF, 1 mM EDTA, 1.5 mM MgCl2, 10 mM NaPyrophosphate) supplemented with phosphatase (Sigma Cat# P2850) and protease inhibitors (Sigma Cat #P8340). Lysates were cleared by centrifugation at 1000×g for 5 minutes at 4° C. Cell lysates were transferred to white wall 96 well microtiter (Costar #9018) plates coated with 50 ng/well anti-FLT3 antibody (Santa Cruz Cat# sc-480) and blocked with SeaBlock reagent (Pierce Cat#37527). Lysates were incubated at 4° C. for 2 hours. Plates were washed 3× with 200 ul/well PBS/0.1% Triton-X-100. Plates were then incubated with 1:8000 dilution of HRP-conjugated anti-phosphotyrosine antibody (Clone 4G10, Upstate Biotechnology Cat#16-105) for 1 hour at room temperature. Plates were washed 3× with 200 ul/well PBS/0.1% Triton-X-100. Signal detection with Super Signal Pico reagent (Pierce Cat#37070) was done according to manufacturer's instruction with a Berthold microplate luminometer. All data points are an average of triplicate samples. […] Inhibition and IC50 data analysis was done with GraphPad Prism using a non-linear regression fit with a multiparamater, sigmoidal dose-response (variable slope) equation.

IC50 [1]	IC50 (MV4-11 cells)	IC50 [2]	SMILES
0.408 µM	> 10 µM	–	COc1cc2ncnc(N3CC(CNC(=O)Nc4ccc(OC(C)C)cc4)C3)c2cc1OC [Compound 25, 1-[1-(6,7-Dimethoxy-quinazolin-4-yl)-azetidin-3-ylmethyl]-3-(4-isopropoxy-phenyl)-urea]
7.14 µM	> 10 µM	–	CC(C)Oc1ccc(NC(=O)OC2CCN(c3ccnc4ccccc34)C2)cc1 (stereo not shown) [Compound 39]
–	0.83 µM	6.6 µM	COc1cc2ncnc(N3CCC(NC(=O)Nc4ccc(N(C)C)cc4)C3)c2cc1OC (stereo not shown) [Compound 52, 1-[1-(6,7-Dimethoxy-quinazolin-4-yl)-pyrrolidin-3-yl]-3-(4-dimethylamino-phenyl)-urea]
0.29 µM	0.22 µM	–	CC(C)c1ccc(NC(=O)OC2CCN(c3ncnc4ccccc34)C2)cc1 (stereo not shown) [Compound 24, (4-Isopropyl-phenyl)-carbamic acid 1-quinazolin-4-yl-pyrrolidin-3-yl ester]

Further lines, the compound ahead of its results:

SMILES	IC50 [1]	IC50 (MV4-11 cells)	IC50 [2]
CC(C)c1ccc(NC(=O)OC2CCN(c3ccnc4ccccc34)CC2)cc1 [Compound 10]	0.026 µM	1.1 µM	–
COc1cc2ncnc(N3CCC(C(=O)Nc4cccc(OC(C)C)c4)CC3)c2cc1OC [Compound 30, 1(-6,7-Dimethoxy-quinazolin-4-yl)-piperidine-4-carboxylic acid (3-isopropoxy-phenyl)-amide]	0.563 µM	2.31 µM	–
COc1cc2ncc(C#N)c(N3CCC(OC(=O)Nc4ccc(OC(C)C)cc4)CC3)c2cc1OC [Compound 40, (4-Isopropoxy-phenyl)-carbamic acid 1-(3-cyano-6,7-dimethoxy-quinolin-4-yl)-piperidin-4-yl ester]	> 10 µM	–	–
CC(C)c1ccc(NC(=O)OC2CCN(c3ccnc4ccccc34)C2)cc1 (stereo not shown) [Compound 34]	1.05 µM	6.4 µM	–
COc1cc2ncnc(N3CCC(OC(=O)Nc4ccc(OC5CCC5)nc4)CC3)c2cc1OC [Compound 11, (6-Cyclobutoxy-pyridin-3-yl)-carbamic acid 1-(6,7-dimethoxy-quinazolin-4-yl)-piperidin-4-yl ester]	0.028 µM	0.071 µM	–
COc1ccc2c(N3CCC(NC(=O)Nc4ccc(C(C)C)cc4)CC3)ncnc2c1 [Compound 65, 1-(4-Isopropyl-phenyl)-3-[1-(7-methoxy-quinazolin-4-yl)-piperidin-4-yl]-urea]	–	0.321 µM	0.178 µM
COc1cc2ncnc(N3CCC(NC(=O)Nc4ccc(N5CCCC5)nc4)CC3)c2cc1OC [Compound 68, 1-[1-(6,7-Dimethoxy-quinazolin-4-yl)-piperidin-4-yl]-3-(6-pyrrolidin-1-yl-pyridin-3-yl)-urea]	–	0.134 µM	0.016 µM
CC(C)Oc1ccc(NC(=O)NC2CCN(c3ccnc4ccccc34)C2)cc1 (stereo not shown) [Compound 38, (4-Isopropoxy-phenyl)-3-(1-quinolin-4-yl)-pyrrolidin-3-yl-urea]	3.15 µM	> 3 µM	–
CC(C)c1ccc(NC(=O)NC2CCN(c3ccnc4ccccc34)C2)cc1 (stereo not shown) [Compound 27, (4-Isopropyl-phenyl)-3-(1-quinolin-4-yl)-pyrrolidin-3-yl-urea]	0.457 µM	5.3 µM	–
